We go through 58 compounds from the Kinase Knowledgebase extract (Sharma et al. 2016).

Structures are written as SMILES.

The first assay has as its target CDK2 (human) (UniProt P24941). In words: Enzyme Assay.
Conditions: not given
The term Ki denotes the equilibrium dissociation constant of an inhibitor or competing ligand from its target. Read a high Ki as weaker binding. `CC(=O)/C=C/C(=O)N1CCC(Nc2nc(N)c(C(=O)c3c(F)cccc3F)s2)CC1` returned a Ki of 500 nM.

On to `Nc1nc(NC2CCN(S(=O)(=O)c3ccc(CCN4CCC(c5ccccc5)C4)nc3)CC2)sc1C(=O)c1c(F)cccc1F` (centres undefined), for which the Ki was 1.8 nM.

Staying with this assay, now noted: concentration not given here.
Usually inhibition stands for the drop in the measured response relative to a control, in per cent. For the compound `COc1ccc(C(=O)N2CCC(Nc3nc(N)c(C(=O)c4c(F)cccc4F)s3)CC2)c(Cl)c1`, the inhibition was 52%. On the same count and under the same terms, the result for `CC(=O)/C=C/C(=O)N1CCC(Nc2nc(N)c(C(=O)c3c(F)cccc3F)s2)CC1` reads 5%; that for `COc1ccc(OC)c(CC(=O)N2CCC(Nc3nc(N)c(C(=O)c4c(F)cccc4F)s3)CC2)c1`, 57%; that for `CSCCC(O)C(=O)N1CCC(Nc2nc(N)c(C(=O)c3c(F)cccc3F)s2)CC1` (centres undefined), 65%. The same measure, in the same setting: with `Cc1cccc(OCC(=O)N2CCC(Nc3nc(N)c(C(=O)c4c(F)cccc4F)s3)CC2)c1` the figure was 70%. Same read-out and setting: the result for `Cc1cnc(C(=O)N2CCC(Nc3nc(N)c(C(=O)c4c(F)cccc4F)s3)CC2)cn1` reads 72%. Turning to `Nc1nc(NC2CCN(C(=O)C3COc4ccccc4O3)CC2)sc1C(=O)c1c(F)cccc1F` (centres undefined), the inhibition was found to be 58%. The same measure, in the same setting: with `COc1ccc2[nH]c(C(=O)N3CCC(Nc4nc(N)c(C(=O)c5c(F)cccc5F)s4)CC3)cc2c1` the figure was 35%.

For `Cc1cc(C)c(/C=C/C(=O)N2CCC(Nc3nc(N)c(C(=O)c4c(F)cccc4F)s3)CC2)cc1C`, the inhibition is 76%.

For the compound `Nc1nc(NC2CCN(C(=O)[C@H](O)Cc3ccccc3)CC2)sc1C(=O)c1c(F)cccc1F`, the inhibition was determined as 42%. As to `Nc1nc(NC2CCN(C(=O)/C=C/c3ccccc3)CC2)sc1C(=O)c1c(F)cccc1F`, the inhibition was determined as 47%.

On to `N#C/C(=C\c1ccccc1)C(=O)N1CCC(Nc2nc(N)c(C(=O)c3c(F)cccc3F)s2)CC1`, for which the inhibition came out at 67%.

Consider `CCc1ccc2[nH]c(C(=O)N3CCC(Nc4nc(N)c(C(=O)c5c(F)cccc5F)s4)CC3)cc2c1`, for which the inhibition is 74%. On the same count and under the same terms, with `Nc1nc(NC2CCN(C(=O)c3cnccc3C(F)(F)F)CC2)sc1C(=O)c1c(F)cccc1F` the figure was 18%. As to `CC(=O)N1CCC(C(=O)N2CCC(Nc3nc(N)c(C(=O)c4c(F)cccc4F)s3)CC2)CC1`, the inhibition worked out at 36%. Same read-out and setting: with `Nc1nc(NC2CCN(C(=O)/C=C/c3cccc(F)c3F)CC2)sc1C(=O)c1c(F)cccc1F` the figure was 51%; with `Nc1nc(NC2CCN(C(=O)CCc3ccc4c(c3)OCO4)CC2)sc1C(=O)c1c(F)cccc1F`, 49%. On the same count and under the same terms, with `CN(C)[C@@H](Cc1ccccc1)C(=O)N1CCC(Nc2nc(N)c(C(=O)c3c(F)cccc3F)s2)CC1` the figure was 10%. The same measure, in the same setting: the result for `CC(C)CCCC(=O)N1CCC(Nc2nc(N)c(C(=O)c3c(F)cccc3F)s2)CC1` reads 71%. In the case of `Nc1nc(NC2CCN(C(=O)CCCN3C(=O)C=CC3=O)CC2)sc1C(=O)c1c(F)cccc1F`, the inhibition came out at 43%. On the same count and under the same terms, the result for `Cc1nc(C)c(C(=O)N2CCC(Nc3nc(N)c(C(=O)c4c(F)cccc4F)s3)CC2)s1` reads 67%; that for `Nc1nc(NC2CCN(C(=O)c3ccccc3COC(=O)c3ccccc3)CC2)sc1C(=O)c1c(F)cccc1F`, -9%. On to `Cc1ccccc1CC(=O)N1CCC(Nc2nc(N)c(C(=O)c3c(F)cccc3F)s2)CC1`, for which the inhibition turned out to be 56%.

In the case of `COCCC(=O)N1CCC(Nc2nc(N)c(C(=O)c3c(F)cccc3F)s2)CC1`, the inhibition is 33%. In the case of `CCCCC(=O)N1CCC(Nc2nc(N)c(C(=O)c3c(F)cccc3F)s2)CC1`, the inhibition was determined as 48%. On the same count and under the same terms, the result for `N#Cc1ccccc1C(=O)N1CCC(Nc2nc(N)c(C(=O)c3c(F)cccc3F)s2)CC1` reads 61%. Still for that read-out and setting: the result for `C=CCCCC(=O)N1CCC(Nc2nc(N)c(C(=O)c3c(F)cccc3F)s2)CC1` reads 39%. For `Cn1c(C(=O)N2CCC(Nc3nc(N)c(C(=O)c4c(F)cccc4F)s3)CC2)cc2ccccc21`, the inhibition was 61%.

Regarding `CC(C)[C@@H](O)C(=O)N1CCC(Nc2nc(N)c(C(=O)c3c(F)cccc3F)s2)CC1`, the inhibition came to 34%. Same read-out and setting: the result for `Nc1nc(NC2CCN(C(=O)C(O)c3cc(F)ccc3F)CC2)sc1C(=O)c1c(F)cccc1F` (centres undefined) reads 57%; that for `Nc1nc(NC2CCN(C(=O)/C=C/c3ccccc3Cl)CC2)sc1C(=O)c1c(F)cccc1F`, 83%. Same read-out and setting: the result for `Nc1nc(NC2CCN(C(=O)[C@@H]3C[C@H]3c3ccccc3)CC2)sc1C(=O)c1c(F)cccc1F` reads -9%; that for `CSc1ncccc1C(=O)N1CCC(Nc2nc(N)c(C(=O)c3c(F)cccc3F)s2)CC1`, 33%; that for `Nc1nc(NC2CCN(C(=O)CSc3ccncc3)CC2)sc1C(=O)c1c(F)cccc1F`, 23%.

For `Nc1nc(NC2CCN(C(=O)c3cnc4ccccc4c3)CC2)sc1C(=O)c1c(F)cccc1F`, the inhibition stood at 27%. The same measure, in the same setting: the result for `COCCOCCOCC(=O)N1CCC(Nc2nc(N)c(C(=O)c3c(F)cccc3F)s2)CC1` reads 38%; that for `CC1CCC(C(=O)N2CCC(Nc3nc(N)c(C(=O)c4c(F)cccc4F)s3)CC2)CC1` (centres undefined), 59%; that for `COc1ccccc1/C=C/C(=O)N1CCC(Nc2nc(N)c(C(=O)c3c(F)cccc3F)s2)CC1`, 92%. The same measure, in the same setting: the result for `CC(=O)CCCCC(=O)N1CCC(Nc2nc(N)c(C(=O)c3c(F)cccc3F)s2)CC1` reads 49%; that for `Nc1nc(NC2CCN(C(=O)C3CC3)CC2)sc1C(=O)c1c(F)cccc1F`, -2%; that for `CN1CC(C(=O)N2CCC(Nc3nc(N)c(C(=O)c4c(F)cccc4F)s3)CC2)CC1=O` (centres undefined), 41%. Same read-out and setting: the result for `COc1ccccc1/C=C\C(=O)N1CCC(Nc2nc(N)c(C(=O)c3c(F)cccc3F)s2)CC1` reads 70%; that for `CC(C)(O)C(=O)N1CCC(Nc2nc(N)c(C(=O)c3c(F)cccc3F)s2)CC1`, 50%.

`COC(=O)CCCC(=O)N1CCC(Nc2nc(N)c(C(=O)c3c(F)cccc3F)s2)CC1`: the inhibition worked out at 45%. Same read-out and setting: the result for `CCC(C)C(C(=O)N1CCC(Nc2nc(N)c(C(=O)c3c(F)cccc3F)s2)CC1)c1ccccc1` (centres undefined) reads 49%; that for `COC(=O)C(=O)N1CCC(Nc2nc(N)c(C(=O)c3c(F)cccc3F)s2)CC1`, -12%; that for `CCCCCCCC(=O)N1CCC(Nc2nc(N)c(C(=O)c3c(F)cccc3F)s2)CC1`, 53%. On the same count and under the same terms, with `Nc1nc(NC2CCN(C(=O)CCCCc3ccccc3)CC2)sc1C(=O)c1c(F)cccc1F` the figure was 36%; with `CC[C@@H](C(=O)N1CCC(Nc2nc(N)c(C(=O)c3c(F)cccc3F)s2)CC1)c1ccccc1`, 41%; with `CN(C)C(=O)CCC(=O)N1CCC(Nc2nc(N)c(C(=O)c3c(F)cccc3F)s2)CC1`, 49%. The same measure, in the same setting: the result for `Nc1nc(NC2CCN(C(=O)c3c(F)cccc3F)CC2)sc1C(=O)c1c(F)cccc1F` reads -20%.

As for `COc1cscc1C(=O)N1CCC(Nc2nc(N)c(C(=O)c3c(F)cccc3F)s2)CC1`, the inhibition was 58%.

As to `CC/C=C/CC(=O)N1CCC(Nc2nc(N)c(C(=O)c3c(F)cccc3F)s2)CC1`, the inhibition was determined as 46%.

`COc1ccc(C(=O)N2CCC(Nc3nc(N)c(C(=O)c4c(F)cccc4F)s3)CC2)cc1F`: the inhibition worked out at 72%. As to `CSCCC(=O)N1CCC(Nc2nc(N)c(C(=O)c3c(F)cccc3F)s2)CC1`, the inhibition was 42%. Still for that read-out and setting: with `Nc1nc(NC2CCN(C(=O)c3ccc(Cl)cc3F)CC2)sc1C(=O)c1c(F)cccc1F` the figure was 68%. On the same count and under the same terms, with `Cc1ccc(C(=O)/C=C/C(=O)N2CCC(Nc3nc(N)c(C(=O)c4c(F)cccc4F)s3)CC2)cc1` the figure was 78%.
